Data published in patent publication EP0400227A1, “Natriuretic peptides” (Acticor, Inc., priority 1989, dated 1990).
Ends that are not written are not given here.

System: rats
Assay: Natriuretic and diuretic effect of intravenous bolus injection in anesthetized rats
Assay type: in vivo, male Sprague-Dawley or Long-Evans rats
Details: 30 to 60 minutes after minus 30 to 0 minutes before injection, mean ± SEM
Method: Diuretic and natriuretic activity of the peptides of this invention is assayed in male rats of the Sprague-Dawley or Long-Evans strains. Peptide or vehicle (for control purposes) is administered by intravenous bolus injection or by continuous infusion into one […] of animals anesthetized for the duration of the experiment, or by intramuscular or subcutaneous injection into animals only briefly anesthetized with ether and subsequently conscious and freely moving until completion of the experiment. Timed urine samples are collected for determination of volume and measurement of sodium and potassium concentration by flame photometry. Details of each method are given in Examples II to IV below.
The natriuretic and diuretic effect of intravenous bolus injection of peptides F15R, G13R and E19R was tested in male Sprague-Dawley or Long-Evans rats weighing 300-400 g. The animals were given Inactin®, 120 mg per kg body weight i.p. under light ether anesthesia. Following placement of a tracheal cannula, the right femoral vein was catheterized for infusion of 5% bovine serum albumin at a dose of 0.4% of body weight and at a rate of 6.0 ml/hour. Subsequently, normal saline was infused for the duration of the experiment at a rate of 2.0 ml/hour. The bladder was exposed through an abdominal incision and catheterized for urine collection. Serial 15-minute urine collections in preweighed vials were begun after a recovery period of 45 minutes. After collection of four control samples, the peptide in 0.1 ml of vehicle was injected into the femoral vein over a period of 1 minute and 6 to 10 further urine samples were collected. Urine volume was determined by weighing and urine sodium and potassium were assayed by flame photometry. All peptides produced natriuresis and diuresis reaching peak levels usually between 30 and 60 minutes after injection. The difference between urine volume and sodium excretion observed from 30 to 60 minutes after and 30 to 0 minutes before peptide administration was calculated for each rat as a measure of activity.

[1] = i.v. 0.100 nmol (0.10 nmol for G13R)

Sequence: GNGDEQPLTPNPR [G13R]
- Change in Sodium Excretion [1]: 8.39 ± 4.41 µeq/30 minutes
- Change in Urine Volume [1]: 80.0 ± 29.2 µl/30 minutes
- Change in Sodium Excretion (i.v. 1.00 nmol): 12.48 ± 6.22 µeq/30 minutes
- Change in Urine Volume (i.v. 1.00 nmol): 62.0 ± 17.2 µl/30 minutes

Sequence: ETPMFPGNGDEQPLTENP [E19R]
- Change in Sodium Excretion (i.v. 0.025 nmol): 6.50 ± 3.60 µeq/30 minutes
- Change in Urine Volume (i.v. 0.025 nmol): 89.0 ± 43.6 µl/30 minutes
- Change in Sodium Excretion [1]: 12.07 ± 5.08 µeq/30 minutes
- Change in Urine Volume [1]: 104.2 ± 58.0 µl/30 minutes
